From US11858921B2, “Uracil derivatives as TRPA1 inhibitors” (Boehringer Ingelheim International GmbH, priority 2021, dated 2024) come the findings set out here.

In data set [1] the target is T1, human TRPA1 ion channel (Homo sapiens, UniProt O75762).
T1 construct: host or cells: HEK293
Description: Assay A: TRPA1 assay (FLIPR calcium, AITC agonism). Particulars: read-out: hTRPA1 IC50. In kind it is cell-based. As to the method:
A human HEK293 cell line over-expressing the human TRPA1 ion channel (Perkin Elmer, Product No. AX-004-PCL) is used as a test system for compound efficacy and potency. Compound activity is determined by measuring the effect of compounds on intracellular calcium concentration induced by AITC (Allylisothiocyanat) agonism in a FLIPRtetra system (Molecular Devices).
The cells are obtained as frozen cells in cryo-vials and stored until use at −150° C.
Cells are grown in culture medium (MEM/EBSS medium with 10% FCS and 0.4 mg/ML Geneticin). […] For sub-culturing cells are detached from flasks by Versene. At the day before the assay, cells are detached, washed twice with medium (MEM/EBSS medium with 10% FCS) and 20000 cells in 20 μl/well are seeded to Poly D-Lysin biocoated 384-well plates (black, clear bottom, Cat. 356697) from Corning. Plates are incubated for 24 hours at 37° C./5% CO2 before use in the assay.
The test compounds are dissolved in 100% DMSO at a concentration of 10 mM and in a first step diluted in DMSO to a concentration of 5 mM, followed by serial dilution steps in 100% DMSO. Dilution factor and number of dilution steps may vary according to needs. Typically 8 different concentrations by 1:5 dilutions are prepared, further intermediate dilutions (1:20) of the substances are carried out with HBSS/HEPES buffer (1×HEPES, Cat. 14065 from Gibco, 20 mM HEPES, Cat. 83264 from SIGMA, 0.1% BSA Cat. 11926 from Invitrogen, pH 7.4
At the assay day cells are washed 3× with assay puffer, 20 μL buffer remaining in the wells after washing. 10 μL Ca6 kit (Cat. R8191 MolecularDevices) loading buffer in HBSS/HEPES is added to the cells and the plates are incubated with lid for 120 minutes at 37°/5% CO2. 10 μL of compound or controls in HBSS/HEPES buffer/5% DMSO from the intermediate dilution plate are carefully added to the wells. […] Finally 10 μL of the agonist AITC 50 μM dissolved in HBSS/HEPES buffer/0.05% DMSO (final concentration 10 μM) is added to the wells followed by an additional read on the FLIPRtetra device for 10 minutes. The area under the signal curve (AUC) after AITC addition is used for IC50/% inhibition calculations Data evaluation and calculation:
Each assay microtiter plate contains wells with vehicle (1% DMSO) controls instead of compound as controls for AITC induced luminescence (100% CTL; high controls) and wells with vehicle controls without AITC as controls for non-specific changes in luminescence (0% CTL; low controls).
The analysis of the data is performed by the calculation of the area under signal curve of the individual wells. Based on this values the % value for the measurement of each substance concentration is calculated (AUC(sample)−AUC(low))*100/(AUC(high)−AUC(low)) using MegaLab software (in house development). The IC50 values are calculated from the % control values using MegaLab software. Calculation: [y=(a−d)/(1+(x/c)^b)+d], a=low value, d=high value; x=conc M; c=IC50 M; b=hill; y=% ctrl

Data set [2] in a line: Assay B: Microsomal clearance. It counts as in vitro ADME, human. The following applies: pooled liver microsomes 1 mg/ml, test compound 1 μM, 37° C., NADPH. As to the method: Assay B: Microsomal Clearance:
The metabolic degradation of the test compound is assayed at 37° C. with pooled liver microsomes. The final incubation volume of 100 μl per time point contains TRIS buffer pH 7.6 at RT (0.1 M), magnesium chloride (5 mM), microsomal protein (1 mg/ml) and the test compound at a final concentration of 1 μM.
Following a short preincubation period at 37° C., the reactions are initiated by addition of beta-nicotinamide adenine dinucleotide phosphate, reduced form (NADPH, 1 mM) and terminated by transferring an aliquot into solvent after different time points (0, 5, 15, 30, 60 min). Additionally, the NADPH-independent degradation is monitored in incubations without NADPH, terminated at the last time point. The [%] remaining test compound after NADPH independent incubation is reflected by the parameter c(control) (metabolic stability). The quenched incubations are pelleted by centrifugation (10000 g, 5 min).
An aliquot of the supernatant is assayed by LC-MS/MS for the amount of parent compound. The half-life (t½ INVITRO) is determined by the slope of the semilogarithmic plot of the concentration-time profile.
The intrinsic clearance (CL_[…]) is calculated by considering the amount of protein in the incubation: CL_[…] [μl/min/mg protein]=(Ln 2/(half-life [min]*protein content [mg/ml]))*1000 CL_[…]_INVIVO [ml/min/kg]=(CL_[…] [μL/min/mg protein]×MPPGL [mg protein/g liver]×liver factor [g/kg bodyweight])/1000 Qh[%]=CL[ml/min/kg]/hepatic blood flow [ml/min/kg])
(§1) Hepatocellularity, human: 120×10e6 cells/g liver
(§2) Liver factor, human: 25.7 g/kg bodyweight
(§3) Blood flow, human: 21 ml/(min×kg)
Background: Liver microsomes are a subcellular fraction often used to study metabolism.

Data set [3] is described as follows: Assay C: Hepatocyte clearance. In kind it is in vitro ADME, human. Particulars: hepatocyte suspension, 5% species serum, test compound 1 μM, up to 6 h. As to the method:
Assay C: Hepatocyte Clearance
The metabolic degradation of the test compound is assayed in a hepatocyte suspension. Hepatocytes (cryopreserved) are incubated in Dulbecco's modified eagle medium (supplemented with 3.5 μg glucagon/500 mL, 2.5 mg insulin/500 mL and 3.75 mg/500 mL hydrocortison) containing 5% species serum.
The cells are incubated for six hours (incubator, orbital shaker) and samples (25 μl) are taken at 0, 0.5, 1, 2, 4 and 6 hours. Samples are transferred into acetonitrile and pelleted by centrifugation (5 min). The supernatant is transferred to a new 96-deepwell plate, evaporated under nitrogen and resuspended.
Decline of parent compound is analyzed by HPLC-MS/MS
CLint is calculated as follows CL_[…]=Dose/AUC=(CO/CD)/(AUD+clast/k)×1000/60. C0: initial concentration in the incubation [μM], CD: cell density of vital cells [10e6 cells/mL], AUD: area under the data [μM×h], clast: concentration of last data point [μM], k: slope of the regression line for parent decline [h−1].
The calculated in vitro hepatic intrinsic clearance can be scaled up to the intrinsic in vivo hepatic Clearance and used to predict hepatic in vivo blood clearance (CL) by the use of a liver model (well stirred model). CL_[…]_INVIVO [ml/min/kg]=(CL_[…] [μL/min/10e6 cells]×hepato-cellularity [10e6 cells/g liver]×liver factor [g/kg bodyweight])/1000 CL[ml/min/kg]=CL_[…]_INVIVO [ml/min/kg]×hepatic blood flow [ml/min/kg]/(CL_[…]_INVIVO [ml/min/kg]+hepatic blood flow [ml/min/kg]) Qh[%]=CL[ml/min/kg]/hepatic blood flow [ml/min/kg])
as §1, §2, §3

T1 sequence (O75762 whole entry): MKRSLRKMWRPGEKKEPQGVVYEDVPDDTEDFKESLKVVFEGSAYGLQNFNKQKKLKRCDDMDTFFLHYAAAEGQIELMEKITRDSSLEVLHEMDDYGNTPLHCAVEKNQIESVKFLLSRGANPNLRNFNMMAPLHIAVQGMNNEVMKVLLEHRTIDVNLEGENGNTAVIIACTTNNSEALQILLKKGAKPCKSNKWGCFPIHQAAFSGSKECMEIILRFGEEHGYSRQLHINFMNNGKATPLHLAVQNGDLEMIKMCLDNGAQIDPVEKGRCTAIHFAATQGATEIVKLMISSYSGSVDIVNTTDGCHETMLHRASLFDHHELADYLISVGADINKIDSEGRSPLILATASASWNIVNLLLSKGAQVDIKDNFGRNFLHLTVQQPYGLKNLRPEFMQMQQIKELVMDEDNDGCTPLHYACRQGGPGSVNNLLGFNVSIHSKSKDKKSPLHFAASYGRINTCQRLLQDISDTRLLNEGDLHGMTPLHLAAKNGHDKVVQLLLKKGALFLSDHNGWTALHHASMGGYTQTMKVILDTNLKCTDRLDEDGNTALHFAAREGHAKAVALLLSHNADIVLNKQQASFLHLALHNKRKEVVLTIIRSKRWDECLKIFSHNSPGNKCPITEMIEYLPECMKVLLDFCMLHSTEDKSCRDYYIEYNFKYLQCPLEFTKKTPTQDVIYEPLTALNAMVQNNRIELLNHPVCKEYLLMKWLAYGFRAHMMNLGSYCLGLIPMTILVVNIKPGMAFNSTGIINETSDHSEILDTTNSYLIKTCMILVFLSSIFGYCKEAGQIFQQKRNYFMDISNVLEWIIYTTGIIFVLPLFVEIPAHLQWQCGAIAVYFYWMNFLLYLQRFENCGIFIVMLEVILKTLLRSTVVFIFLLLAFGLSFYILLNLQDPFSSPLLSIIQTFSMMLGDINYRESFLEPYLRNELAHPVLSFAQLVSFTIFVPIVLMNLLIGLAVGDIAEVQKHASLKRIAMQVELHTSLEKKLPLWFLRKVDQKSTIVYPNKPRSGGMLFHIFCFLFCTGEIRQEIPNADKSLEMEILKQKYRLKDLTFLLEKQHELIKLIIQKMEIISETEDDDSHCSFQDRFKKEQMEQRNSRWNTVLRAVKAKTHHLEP

Take `Cc1ccc([C@@H](O)Cc2noc(Cn3cc(C(N)=O)c(=O)n(C)c3=O)n2)cc1` [Example 7]: the half-inhibitory concentration (IC50) in data set [1] was determined as 0.084 µM. In addition, the “human LM [% Qh]” value in data set [2] was less than 23 % Qh. In addition, the “human Hepatocytes [% Qh]” value in data set [3] was 8 % Qh.

As to `Cn1c(=O)c(C(N)=O)cn(Cc2nc(C[C@H](O)c3ccc(Cl)cc3)no2)c1=O` [Example 1, 1-({3-[(2S)-2-(4-chlorophenyl)-2-hydroxyethyl]-1,2,4-oxadiazol-5-yl}methyl)-3-methyl-2,4-dioxo-1,2,3,4-tetrahydropyrimidine-5-carboxamide], the IC50 in data set [1] worked out at 0.038 µM. In data set [2], the “human LM [% Qh]” value is given as less than 23 % Qh. In addition, the “human Hepatocytes [% Qh]” value in data set [3] is 15 % Qh.

In the case of `Cn1c(=O)c(C(N)=O)cn(Cc2nc(C[C@H](O)c3cc4cc(F)ccc4o3)no2)c1=O` [Example 5], the IC50 in data set [1] is 0.033 µM. Also, the “human LM [% Qh]” value in data set [2] is listed as less than 23 % Qh. The “human Hepatocytes [% Qh]” value in data set [3] amounted to 15 % Qh.

Take `Cn1c(=O)c(C(N)=O)cn(Cc2nc(C[C@H](O)c3cc4cc(Cl)ccc4o3)no2)c1=O` [Example 4]: in data set [1], the half-maximal inhibitory concentration (IC50) is 0.015 µM. For the same compound, the “human LM [% Qh]” value in data set [2] is less than 23 % Qh. In addition, in data set [3], the “human Hepatocytes [% Qh]” value was 21 % Qh.

Consider `Cn1c(=O)c(C(N)=O)cn(Cc2nc(C[C@H](O)c3cc4ccc(F)cc4s3)no2)c1=O` [Example 3], for which, in data set [1], the IC50 was found to be 0.008 µM. The “human LM [% Qh]” value in data set [2] came out at 43 % Qh. Also, in data set [3], the “human Hepatocytes [% Qh]” value was found to be 17 % Qh.

`Cn1c(=O)c(C(N)=O)cn(Cc2nc(C[C@H](O)c3ccc(I)cc3)no2)c1=O` [Example 6]: in data set [1], the concentration for half-maximal inhibition (IC50) came to 0.057 µM. The “human LM [% Qh]” value in data set [2] is recorded as 24 % Qh. Besides, in data set [3], the “human Hepatocytes [% Qh]” value is reported as 17 % Qh.

Consider `Cn1c(=O)c(C(N)=O)cn(Cc2nc(C[C@H](O)c3cc4ccccc4s3)no2)c1=O` [Example 2], for which, in data set [1], the IC50 was 0.006 µM. For the same compound, the “human LM [% Qh]” value in data set [2] is reported as less than 23 % Qh. Moreover, in data set [3], the “human Hepatocytes [% Qh]” value was determined as 24 % Qh.

As usually defined, the IC50 is the point on the concentration scale where inhibition reaches its midpoint.
